Experimental data reported in US11426402B2, “IRE1 activating compounds for use in therapy” (The Scripps Research Institute, priority 2019, dated 2022).

Tests used:
PERK geneset = test: RNAseq geneset analysis in HEK293T cells, PERK geneset; assay type: cell-based, human; settings: 6 h
Description: (§1) Cells were lysed and total RNA collected using the RNeasy mini kit, according to manufacturer's instructions (Qiagen). Conventional RNA-seq was conducted via BGI Americas on the BGI Proprietary platform, providing single-end 50 bp reads at 20 million reads per sample. Alignment of sequencing data was done using DNAstar Lasergene SeqManPro to the GRCh37. p 13 human genome reference assembly, and assembly data were imported into ArrayStar 12.2 with QSeq (DNAStar Inc.) to quantify the gene expression levels and normalization to reads per kilobase per million (RPKM). Differential expression analysis and statistical significance calculations between different conditions was assessed using “DESeq” in R, compared to vehicle-treated cells, using a standard negative binomial fit of the RPKM data to generate Fold Change quantifications.
The purpose of this example was to define the ability of the compounds to selectively induce expression of IRE1/XBP1s target genes: for this purpose, RNAseq was performed on HEK293T cells that had been treated with compound No. 198, 474, or 970 for 6 h. As a control, RNAseq was performed on cells that had been treated with the global UPR activator Tg. […] These include the ER stress-responsive transcription factor XBP1 and the ER proteostasis factors SEC24D, […], and HERPUD1^8.
The next step defined the selectivity of the compounds for IRE1/XBP1s signaling relative to other arms of the UPR. […] To overcome this challenge, the expression of individual genes that are included in these genesets were normalized to the expression observed in Tg-treated cells (Tg representing 100% activation of these genes). It was therefore possible to directly compare gene expression without complications arising from differential expression^42.

CHO 7PA2 cells = test: CHO 7PA2 viability; assay type: cell-based
CHO 7WD10 cells = test: CHO 7WD10 viability; assay type: cell-based
[1] = system: stress-responsive signaling pathways; test: Gene Ontology and stress-responsive geneset analysis of RNAseq in HEK293T cells; assay type: cell-based, human
Description: as §1

secreted Aβ = test: Aβ ELISA of media conditioned on CHO 7PA2 cells (V717F APP); assay type: cell-based; settings: CHO 7PA2, 10 μM
Description: FIGS. 5A-5D. […] Cells were treated for 18 hours, media was then replaced and conditioned in the presence of treatments for 24 hours before harvesting for ELISA assay. Error bars represent SEM for n=3 replicates. Statistics calculated from one-tailed Student's t-test. *p<0.05, **p<0.01, ***p<0.001 (FIG. 5A). Quantification of media and lysate immunoblots from 474 treatment (10 μM) of APP. Error bars represent Standard Deviation for n=3 replicates. Statistics calculated from one-tailed Student's t-test. *p<0.05, **p<0.01 ***p<0.001 (FIG. 5B). Plot showing fraction of total remaining APP at each time point after S35 metabolic labeling of newly synthesized protein, accounting for the sum of APP in lysate and media. Error bars represent Standard Deviation for n=3 replicates. Statistics calculated from one-tailed Student's t-test. *p<0.05, **p<0.01, ***p<0.001 (FIG. 5C). Plot showing fraction of secreted APP collected at 2 hours after metabolic labeling. Error bars represent Standard Deviation for n=3 replicates. Statistics calculated from one-tailed Student's t-test. *p<0.05, **p<0.01, ***p<0.001 (FIG. 5D).
(§2) 7PA2 or 7WD10 cells were cultured on 96-well plates (Corning) and treated with IRE1 activating compounds +/−4 μ8c overnight. The medium was then replaced at 50% volume with treatment remaing, culture medium was collected after 24 hours. The medium was analyzed by an AP ELISA as follows. Monoclonal 6E10 anti-Aβ(residues 1-17) mouse IgG1, (Biolegend) was coated in […] carbonate buffer, pH 9.6, at 4° C. overnight on high binding assay black plates (Costar), washed with TBST (tris buffered saline with 0.05% Tween 20) and blocked with 5% non-fat milk in TBST. Samples and standards (condition 7PA2 media) were incubated for 1.5 hr, followed by addition of 4G8 antibody [anti-Aβ residues 17-24, mouse IgG2b (Biolegend)] conjugated to horseradish peroxidase (hrp) and incubated for 1.5 hr at 25° C. After washing, ABM substrate was added, followed by detection with an absorbance plate reader.
(§3) ELISA was used to monitor Aβ in media conditioned on a CHO cell line stably expressing the destabilized, disease-associated V717F APP mutant (CHO^7PA2)^45 treated with or without compounds 198, 474, and 970. […] The reduction in A secretion can be attributed to IRE1 activation because the reduced extracellular accumulation of Aβ is blocked by co-treatment with the active site IRE1 inhibitor 4 μ8c (FIG. 5A).

XBP1 splicing = XBP1 splicing in wild-type and Ire1-deficient MEF cells; assay type: cell-based, mouse; settings: for XBP1 splicing: Ire1-deficient MEF cells; for IRE1-dependent XBP1 splicing: wild-type MEF cells
Description: To amplify the spliced and unspliced XBP1 mRNA, XBP1 primers were used as described previously.^21 PCR products were electrophoresed on 2.5% agarose gel. GAPDH (forward 5′[…]3′, reverse 5′[…]3′) was used as a loading control. The size difference between the spliced and the unspliced XBP1 is 26 nucleotides.
Compounds 474, 198, and 970 were selected as exemplary hits based on their selective IRE1-depedendent induction of DNAJB9, their EC50 of XBP1-RLuc activation of <3 μM and their high maximal activation of IRE1signaling measured by both XBP1s-RLuc activity and DNAJB9 expression (>50% that observed with Tg). […] However, this splicing was not observed in Ire1-deficient MEF cells, further confirming that these compounds increase XBP1 splicing by an IRE1-dependent mechanism.

XBP1s = test: Overlap of compound-induced genes with dox-dependent XBP1s activation in HEK293DAX cells; assay type: cell-based, human
Description: as §1
These cells stably express both doxycycline (dox)-inducible XBP1s and trimethoprim (TMP) regulated DHFR.ATF6, allowing stress-independent activation of XBP1s and/or ATF6 signaling through addition of the activating ligands dox or TMP, respectively^8.

extracellular Aβ = test: Aβ in media conditioned on CHO 7WD10 cells (wild-type APP); assay type: cell-based; settings: CHO 7WD10, APP WT
Description: as §2, §3

CCOC(CNC(=O)C1CCCN(Cc2nc(-c3ccc(Cl)cc3)oc2C)C1)OCC (stereo not drawn) [Compound 198]
expression of the PERK geneset (PERK geneset): increased expression of the PERK geneset
CHO 7PA2 viability (CHO 7PA2 cells): did not significantly influence
cellular viability (CHO 7WD10 cells): without impacting cellular viability
Gene Ontology analysis of induced genes [1]: primarily induce expression of genes annotated with GO terms related to ER stress and the UPR
activation of other stress responsive signaling pathways apart from IRE1/XBP1s [1]: to a lesser extent
Aβ in conditioned media relative to control conditioned media (secreted Aβ): 50%
XBP1 splicing (XBP1 splicing): not observed
IRE1-dependent XBP1 splicing (XBP1 splicing): increased
overlap of genes induced >1.2 fold with dox-dependent XBP1s activation (XBP1s): less overlap
extracellular Aβ in conditioned media (extracellular Aβ): reduced extracellular Aβ

Cc1ccc(OCCN(C)C(=O)Cn2cc(NC(=O)CCOc3ccccc3)cn2)cc1 [Compound 474]
expression of the PERK geneset (PERK geneset): did not demonstrate this effect
CHO 7PA2 viability (CHO 7PA2 cells): did not significantly influence
cellular viability (CHO 7WD10 cells): without impacting cellular viability
Gene Ontology analysis of induced genes [1]: primarily induce expression of genes annotated with GO terms related to ER stress and the UPR
activation of other stress responsive signaling pathways apart from IRE1/XBP1s [1]: do not significantly activate
Aβ in conditioned media relative to control conditioned media (secreted Aβ): 50%
XBP1 splicing (XBP1 splicing): not observed
IRE1-dependent XBP1 splicing (XBP1 splicing): increased
overlap of genes induced >1.2 fold with dox-dependent XBP1s activation (XBP1s): > 80%
top 100 induced genes overlapping with genes induced by dox-dependent XBP1s activation (XBP1s): majority
extracellular Aβ in conditioned media (extracellular Aβ): reduced extracellular Aβ

O=C(CN(Cc1ccc(Cl)cc1)S(=O)(=O)c1cccnc1)N1CCc2ccccc21 [Compound 970]
expression of the PERK geneset (PERK geneset): did not demonstrate this effect
CHO 7PA2 viability (CHO 7PA2 cells): did not significantly influence
cellular viability (CHO 7WD10 cells): without impacting cellular viability
Gene Ontology analysis of induced genes [1]: primarily induce expression of genes annotated with GO terms related to ER stress and the UPR
activation of other stress responsive signaling pathways apart from IRE1/XBP1s [1]: do not significantly activate
Aβ in conditioned media relative to control conditioned media (secreted Aβ): 50%
XBP1 splicing (XBP1 splicing): not observed
IRE1-dependent XBP1 splicing (XBP1 splicing): increased
induction of most non-overlapping genes (XBP1s): < 1.3 fold
overlap of genes induced >1.2 fold with dox-dependent XBP1s activation (XBP1s): > 60%
top 100 induced genes overlapping with genes induced by dox-dependent XBP1s activation (XBP1s): majority
extracellular Aβ in conditioned media (extracellular Aβ): reduced extracellular Aβ
